# Experimental data published in patent publication US8084459B2, “Substituted quinazolinones for treating neurological conditions” (Prana Biotechnology Ltd, priority 2004, dated 2011).
# Columns and labels:
# [1] = molecular target: T1, Aβ 1-42 (Homo sapiens, UniProt P05067); test: Assay 1 Fluorometric H2O2 assay (peroxide); type: biochemical; conditions: inhibition of H2O2 generation by Aβ with copper
# T1 construct: The reaction solutions contained Aβ 1-42 at concentrations
# Experimental: Assay 1. Fluorometric H2O2 Assay
# A fluorometric assay was used to test the ability of a test compound to inhibit hydrogen peroxide generation by Aβ in the presence of copper based on dichlorofluoroscein diacetate (DCF; Molecular Probes, Eugene Oreg.). The DCF solution (5 mM) in 100% dimethyl sulphoxide (previously purged with argon for 1 hr at 20° C.) was deacetylated in the presence of 0.025M NaOH for 30 min and neutralised at pH 7.4 to a final concentration of 1 mM. Horseradish peroxidase (HRP) stock solution was prepared to 1 μM at pH 7.4. The reactions were carried out in PBS, pH 7.4 in a 96 well plate (total volume=250 μl/well). The reaction solutions contained Aβ 1-42 at concentrations in the range of 50 nM to 1 μM, copper-glycine chelate (Cu-Gly), was prepared by adding CuCl2 to glycine in the ratio of 1:6 and added to the Aβ in the proportion 2Cu-Gly:1Aβ), reducing agents including dopamine (5 μM) or ascorbic acid, deacetylated DCF 100 μM, and HRP, 0.1 μM. 1-10 μM EDTA or another chelator may also be present as a control for free copper, but was not required for the assay to function. The reaction mixture was incubated at 37 C for 60 min. Catalase (4000 units/ml) and H2O2 (1-2.5 μM) standards in PBS pH 7.4 may be included as positive controls. Fluorescence was recorded using a plate reader with excitation and emission filters at […] respectively. H2O2 concentration may be established by comparing fluorescence with the H2O2 standards. Inhibition of Aβ H2O2 production was assayed by including a given concentration of test compound(s) in the test wells.
# [2] = Assay 3(d) test compound cytotoxicity (MTS); type: cell-based; conditions: BL6Jx129sv, mouse, primary cortical neuronal cultures, cortical neurons; for viability at 4 days, 1 µM: read-out: Assay 3(d) Cytotoxicity (% viable at 1 uM); for viability at 4 days, 10 µM: read-out: Assay 3(d) Cytotoxicity (% viable at 10 uM)
# Experimental: (§1) Primary Cortical Neuronal Cultures
# (§2) Cortical cultures were prepared as previously described (White et al., 1998). Embryonic day 14 BL6Jx129sv mouse cortices were removed, dissected free of meninges and dissociated in 0.025% (wt/vol) trypsin. Dissociated cells were plated in 48 well culture plates at a density of 2×10^6 cells/mL in MEM with 25% (vol/vol) FCS and 5% (vol/vol) HS and incubated at 37° C., 2 hrs. Media was then replaced with Neurobasal media (Invitrogen Life Technologies) and B27 supplements (Invitrogen Life Technologies). Cultures were maintained at 37° C. in 5% CO2. Prior to experimentation, the culture medium was replaced with Neurobasal media and B27 minus antioxidants (Invitrogen Life Technologies).
# (a) MTS Assay for Cell Viability
# Cell viability is determined using the MTS assay. Culture medium is replaced with fresh neurobasal medium plus B27 supplements minus antioxidants. 1/10 volume MTS solution (Cell Titre 96 Aqueous One, Promega Corporation) and incubated at 37° C., 2 hrs. 200 microlitre aliquots are measured with a spectrophotometer at 560 nm.
# (d) Assay for Test Compound Cytoxicity
# Neuronal cortical cells were cultured for five days as per Assay 2 in NB media and B27 supplement.
# On day six the test compounds were added to the neuronal cell cultures in NB media and B27 supplement minus antioxidants.
# Test compounds were dissolved in 100% DMSO to a concentration of 2.5 mM (10 mM if excess compound was weighed out per vial—then diluted to 2.5 mM). 2.5 mM stock solution was serially diluted 1 in 10 to give working solutions of 250 uM, 25 uM, 2.5 uM. Test compounds were not added directly to cells, instead they were added to a 48 well ‘Drug Plate’ as comprised below:
# (§3) Preparation of “Drug Plate”:
# • Well 1: 576 ul NB+B27 (no antioxidant)*+24 ul 2.5 uM test compound • Well 2: 576 ul NB+B27 (no antioxidant)+24 ul 25 uM test compound • Well 3: 576 ul NB+B27 (no antioxidant)+24 ul 250 uM test compound • Well 4: 576 ul NB+B27 (no antioxidant)+24 ul 2.5 uM test compound • Well 5: 576 ul NB+B27 (no antioxidant)+24 ul 25 uM test compound • Well 6: 576 ul NB+B27 (no antioxidant)+24 ul 250 uM test compound • Well 7: 576 ul NB+B27 (no antioxidant)+24 ul test compound diluent** • Well 8: 600 ul NB+B27 (no antioxidant)
# The Drug Plate was incubated at 37° C. for 15 mins. 200 ul of each well was added in triplicate to the corresponding cell plate. The cell plate was incubated at 37° C., for 4 days, (2 compounds are tested on each plate of cells).
# * NB media and B27 (no antioxidants),
# ** PBT diluent 10% DMSO in NB+B27 (no antioxidants)
# On completion of the assay, 1/10 volume MTS was added per well of plate (ie 25 ul/250 ul). The plates were incubated at 37° C. for 2 hrs, and then absorbance was read at 560 nm.
# [3] = Assay 16 mouse plasma levels of test compounds; type: in vivo; conditions: highest level found in mice (Up to); oral dosing 30 mg/kg described for PB 1075-1077
# Experimental: Assay 16. Determination of Mouse Plasma Levels of Test Compounds PB 1075
# (§4) Oral administration of PB 1075 at 30 mg/kg, as a suspension in Na-Carboxymethyl Cellulose (CMC) was administered by oral gavage to four mice. Two mice were sacrificed 30 minutes after administration and two mice were sacrificed 60 minutes after administration. Blood was obtained by cardiac puncture and plasma separated by centrifugation.
# The concentration of PB 1075 was determined by LC/MS using the triple quadrupole instrument. The mobile phase consisted of an acetonitrile (ACN)/water gradient (containing 0.05% Formic acid) and the column was a Phenomenex Lunea 5 um C8 (50×2 mm) column.
# The supplied acute toxicity mouse plasma samples were directly injected following a protein precipitation with ACN. The analytical method in plasma was linear in the range of 10 to 10,000 ng/ml (R^2=0.994). Recovery of PB 1075 from plasma was ˜100%.
# as §4, with “1076” for “1075”
# The concentration of PB 1076 was determined by LC/MS using the triple quadrupole instrument. The mobile phase consisted of an acetonitrile (ACN)/water gradient (containing 0.05% Formic acid) and the column was a Phenomenex Luna 5 μM C8 (50×2 mm) column.
# The mouse plasma samples were directly injected following a protein precipitation with ACN. The analytical method in plasma was linear in the range of 500 to 10,000 ng/ml (R^2=0.999). Recovery of PB 1076 from plasma was ˜85%.
# as §4, with “1077” for “1075”
# The concentration of PB 1077 was determined by LC/MS using the triple quadrupole instrument. The mobile phase consisted of an acetonitrile (ACN)/water gradient (containing 0.05% Formic acid) and the column was a Phenomenex Luna 5 μM C8 (50×2 mm) column.
# The mouse plasma samples were directly injected following a protein precipitation with ACN. The analytical method in plasma was linear in the range of 5 to 5,000 ng/ml (R^2=0.999). Recovery of PB 1077 from plasma was ˜92%.
# [4] = system: Aβ1-42 toxicity in neuronal cortical cells; test: Assay 3(c) Aβ neurotoxicity and neuroprotection (MTS); type: cell-based, mouse; conditions: 20 uM Aβ1-42, cortical neurons, 4 days
# Experimental: as §1, §2
# (c) Assay for Aβ Neurotoxicity and Aβ Neuroprotection
# Neuronal cortical cells were cultured for five days as per Assay 2. On day six the neurobasal (NB) media (Invitrogen Life Technologies) and B27 supplement (Invitrogen Life Technologies) were replaced with NB media and B27 supplement (no antioxidants). On day six, test compounds were individually added to the neuronal cell cultures:
# The test compounds were dissolved in 100% DMSO to a concentration of 2.5 mM (10 mM if excess compound was weighed out per vial—then diluted to 2.5 mM). 2.5 mM stock solution was serially diluted 1 in 10 to give working solutions of 250 uM, 25 uM, 2.5 uM.
# Aβ was initially dissolved in 20 mM NaOH to a concentration of 1 mM and sonicated for 5 minutes. The peptide was then diluted in H2O and 10×PBS to a final concentration of 200 uM Aβ in 1× PBS. The peptide was again sonicated for 5 minutes and then spun at 14000 rpm for 5 min and transferred to a fresh tube.
# The test compounds were dissolved in 100% DMSO to a concentration of 2.5 mM (10 mM if excess compound was weighed out per vial—then diluted to 2.5 mM). 2.5 mM stock solution was serially diluted 1 in 10 [in NB media and B27 (no antioxidants)] to give working solutions of 250 uM, 25 uM, 2.5 uM. Test compounds were not added directly to cells, instead they were added to a 48 well ‘Drug Plate’ as comprised below:
# as §3
# Well 1: 515 ul NB+B27 (no antioxidant)*+24 ul 25 uM test compound+60 ul Aβ diluent**
# Well 2: 515 ul NB+B27 (no antioxidant)+24 ul 250 uM test compound+60 ul Aβ diluent
# Well 3: 515 ul NB+B27 (no antioxidant)+24 ul test compound diluent***+60 ul Aβ1-42
# Well 4: 515 ul NB+B27 (no antioxidant)+24 ul 2.5 uM test compound+60 ul Aβ1-42
# Well 5: 515 ul NB+B27 (no antioxidant)+24 ul 25 uM test compound+60 ul Aβ1-42
# Well 6: 515 ul NB+B27 (no antioxidant)+24 ul 250 uM test compound+60 ul Aβ1-42 diluent
# Well 7: 515 ul NB+B27 (no antioxidant)+24 ul test compound diluent+60 ul Aβ1-42 diluent
# Well 8: 600 ul NB+B27 (no antioxidant)
# The Drug Plate was incubated at 37° C. for 15 mins. 200 ul of each well was added in triplicate to the corresponding cell plate. The cell plate was incubated at 37 C, for 4 days.
# * NB media+B27 (no antioxidants)
# ** Aβ diluent 2 mM NaOH, 1×PBS
# *** PBT diluent 10% DMSO in NB+B27 (no antioxidant)
# On the 4th day after treating the cells the assay is completed by adding MTS to the cells.
# T1 sequence (P05067 672-713 limits assumed): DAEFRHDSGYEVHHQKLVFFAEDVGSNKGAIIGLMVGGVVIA
SMILES,IC50 [1] [nM],"viability at 4 days, 1 µM [2] [%]","viability at 4 days, 10 µM [2] [%]",Assay 16 Mice plasma concentration [3],Assay 3(c) Neuroprotection (% inhibition of Abeta toxicity) [4] [%]
CN1CCCC1CCn1cnc2c(O)c(Cl)cc(Cl)c2c1=O (centres unmarked) [Compound 1078],730,94,94,Up to 262 ng/mL in,
O=c1c2c(Cl)cc(Cl)c(O)c2ncn1N1CCOCC1 [Compound 1080],440,,70,,15
CN1CCN(n2cnc3c(O)c(Cl)cc(Cl)c3c2=O)CC1 [Compound 1081],550,,,Up to 207 ng/mL,7
O=c1c2c(Cl)cc(Cl)c(O)c2ncn1-c1ccc(Cl)cn1 [Compound 1087],1520,94,58,,11
CCn1nccc1-n1cnc2c(O)c(Cl)cc(Cl)c2c1=O [Compound 1088],840,,94,,3
Cc1ccc(-n2cnc3c(O)c(Cl)cc(Cl)c3c2=O)nc1 [Compound 1089],780,96,83,,13
O=c1c2c(Cl)cc(Cl)c(O)c2ncn1CCc1ccccn1 [Compound 1091],460,100,92,,−8
O=c1c2c(Cl)cc(Cl)c(O)c2ncn1CC1CCNCC1 [Compound 1094],,97,96,,1
Br.CCC(C)n1cnc2c(O)c(Cl)cc(Cl)c2c1=O (centres unmarked) [Compound 1112],330,89,46,Upto 2949 ng/mL in,
